The subject of assay [1] is Interferon-α. Briefly: Induction of Interferon-α using fresh human whole blood (WB). The format is cell-based. Conditions: three donors, overnight incubation, cytokine released as percentage of 2 μM resiquimod control, read-out: mean pEC50 for INF-α (converted). Here is the method: (§1) Assay for the Induction of Interferon-α and TNF-α Using Fresh Human Whole Blood (WB)
(§2) Compounds were prepared at 100× required concentration in DMSO in flat-bottom microtitre plates at a volume of 1.5 μL. Columns 1-10 contained a 1 in 4 serial dilution of the test compound. Included on each plate was a serial dilution of the TLR7/8 agonist resiquimod as a standard and Column 11 contained 1.5 μl of 200 μM resiquimod (giving a 2 μM final concentration, used to define the approximate maximal response to resiquimod). Each compound was assayed in duplicate for each donor.
(§3) Blood samples from three human donors were collected into sodium heparin (10 U/ml). 150 μl of whole Blood was dispensed into Col 1 to 11 of assay plates containing 1.5 μl of test compound or standard in DMSO. Plates were placed in an incubator overnight (37° C., 95% air, 5% CO2). Following the overnight incubation, plates were removed from the incubator & mixed on an orbital shaker for approximately 1 minute. 100 μl of 0.9% saline was added to each well and the plates mixed again on an orbital shaker. Plates were then centrifuged (2500 rpm, 10 mins), after which a sample of plasma was removed using a Biomek FX and assayed for both IFN-α and TNF-α using the MSD (Mesoscale Discovery) electrochemiluminescence assay platform. The IFN-α assay was carried out similarly to that described above. The TNF-α assay was carried out as per kit instructions (Cat No K111BHB).
(§4) Cytokine released was expressed as a percentage of the 2 μM resiquimod control (column 11). This percentage was plotted against compound concentration and the pEC50 for the response determined by non-linear least squares curve fitting. For the IFN-α responses, generally a 4 parameter logistic model was selected. For the TNF-α responses where a clear maximum response was obtained (i.e. a well defined plateau in the response was observed) then a 4 parameter model was generally used. […]

Assay [2] concerns TNF-α. Briefly: Induction of TNF-α using fresh human whole blood (WB). Type of assay: cell-based. The following applies: three donors, overnight incubation, cytokine released as percentage of 2 μM resiquimod control, read-out: mean pEC50 for TNF-α (converted). On the procedure:
as §1, §2, §3, §4

Counter-ions that a name gives are not always drawn. Bounds are passed on as bounds.

In the case of `CCCCc1nc(N)c2[nH]cc(CCCC3CCN(C(C)C)CC3)c2n1` [Example 2, 2-Butyl-7-(3-(1-isopropylpiperidin-4-yl)propyl)-5H-pyrrolo[3,2-d]pyrimidin-4-amine], the figures for the EC50 in assay [1] and in assay [2] were at most 0.398 µM and at most 10 µM, respectively.

Take `CCCCc1nc(N)c2[nH]cc(CCCC3CCNCC3)c2n1` [Example 1, 2-Butyl-7-(3-(piperidin-4-yl)propyl)-5H-pyrrolo[3,2-d]pyrimidin-4-amine formate]: the results for the EC50 in assay [1] and in assay [2] were at most 0.398 µM and at most 10 µM, respectively.

For `CCCCc1nc(N)c2[nH]cc(CCC3CCNCC3)c2n1` [Example 3, 2-Butyl-7-(2-(piperidin-4-yl)ethyl)-5H-pyrrolo[3,2-d]pyrimidin-4-amine], the EC50 in assay [1] was at most 0.398 µM; in assay [2], at most 10 µM.
